Assay results reported in patent publication EP0630897A2, “3-Hydroxy-4-hydroxymethyl-2-methylene-cyclopentyl purines and pyrimidines” (BRISTOL-MYERS SQUIBB COMPANY, priority 1993, dated 1994).

Key:
Type in all cases: cell-based
[1] = system: HSV-1 (herpes simplex virus type 1, strain Schooler); test: Plaque reduction antiviral assay in WI-38 cell culture, HSV-1; conditions: Human alphaherpesvirus 1, 96 h; WI-38 monolayers, at least 50% plaque reduction, 4 days incubation at 37°C; read-out: ID50(μM) for the following viruses HSV-1
Procedure: (§1) Assays were performed in cell culture systems to determine the concentrations of compounds that are effective in preventing several kinds of viral infections. HSV-1 (herpes simplex virus type 1, strain Schooler), HSV-2 (herpes simplex virus type 2, strain 186), VZV (varicella zoster virus, strain ELLEN), HCMV (human cytomegalovirus, strain AD 169). HSV-1, HSV-2, HCMV and VZV antiviral assays: Virus was adsorbed to WI-38 cell culture monolayers in 6 well culture plates (Costar, Cambridge, MA) for 1 hour prior to addition of maintenance medium containing duplicate dilutions of the test compound. Inhibition of plaque development was evaluated on fixed and stained monolayers after 4 days incubation at 37°C. for HSV-1 and HSV-2, and after 5 - 7 days incubation at 37°C. for HCMV and VZV. ID₅₀ values were determined from the drug concentration which conferred at least a 50% plaque reduction compared to virus controls.

[2] = system: VZV (varicella zoster virus, strain ELLEN); test: Plaque reduction antiviral assay in WI-38 cell culture, VZV; conditions: Human alphaherpesvirus 3; WI-38 monolayers, at least 50% plaque reduction, 5 - 7 days incubation at 37°C; read-out: ID50(μM) for the following viruses VZV
Procedure: as §1

[3] = Visible toxicity to the cell monolayers under the antiviral assay conditions; conditions: human, wi-38 cells; concentration at which toxicity was visible
Procedure: HSV-1, HSV-2, HCMV and VZV antiviral assays: Virus was adsorbed to WI-38 cell culture monolayers in 6 well culture plates (Costar, Cambridge, MA) for 1 hour prior to addition of maintenance medium containing duplicate dilutions of the test compound. Inhibition of plaque development was evaluated on fixed and stained monolayers after 4 days incubation at 37°C. for HSV-1 and HSV-2, and after 5 - 7 days incubation at 37°C. for HCMV and VZV. ID₅₀ values were determined from the drug concentration which conferred at least a 50% plaque reduction compared to virus controls.

[4] = system: HCMV (human cytomegalovirus, strain AD 169); test: Plaque reduction antiviral assay in WI-38 cell culture, HCMV; conditions: Human betaherpesvirus 5; WI-38 monolayers, at least 50% plaque reduction, 5 - 7 days incubation at 37°C; read-out: ID50(μM) for the following viruses HCMV
Procedure: as §1

[5] = system: HSV-2 (herpes simplex virus type 2, strain 186); test: Plaque reduction antiviral assay in WI-38 cell culture, HSV-2; conditions: Human alphaherpesvirus 2, 96 h; WI-38 monolayers, at least 50% plaque reduction, 4 days incubation at 37°C; read-out: ID50(μM) for the following viruses HSV-2
Procedure: as §1

Structure (SMILES) | IC50 [1] [µM] | IC50 [2] [µM] | MCC [3] [µM] | IC50 [4] [µM] | IC50 [5] [µM]
C=C1C(O)C(CO)CC1n1cnc2c(=O)[nH]c(N)nc21 (stereo not drawn) [Example 1, (1α,3β,4α)-2-Amino-1,9-dihydro-9-[3-hydroxy-4-(hydroxymethyl)-2-methylenecyclopentyl]-6H-purin-6-one] | 4 to 7 | 7 to 18 | 361 | 7 | 7 to 18
C=C1C(O)C(CO)CC1n1cnc2c(N)ncnc21 (stereo not drawn) [Example 2, (1α,2β,4α)-4-(6-Amino-9H-purin-9-yl)-2-hydroxy-3-methylenecyclopentanemethanol] | 383 | > 38 | 383 | > 38 | 383
C=C1C(O)C(CO)CC1n1cc(I)c(=O)[nH]c1=O (stereo not drawn) [Example 4, (1α,3β,4α)-1-[3-Hydroxy-4-(hydroxymethyl)-2-methylenecyclopentyl]-5-iodo-2,4(1H,3H)-pyrimidinedione] | > 275 | 275 | 275 | 28 to 275 | > 275
C=C1C(O)C(CO)CC1n1cc(C)c(=O)[nH]c1=O (stereo not drawn) [Example 3, (1α,3β,4α)-1-[3-Hydroxy-4-(hydroxymethyl)-2-methylenecyclopentyl]-5-methyl-2,4(1H,3H)-pyrimidinedione] | 100 to 200 | 40 | 396 | > 396 | > 396
C=C1C(O)C(CO)CC1n1cc(C=CBr)c(=O)[nH]c1=O (stereo not drawn) [Example 5, [1α(E),3β,4α]-5-[2-Bromoethenyl)-1-[3-hydroxy-4-(hydroxymethyl)-2-methylenecyclopentyl]-2,4-(1H,3H)-pyrimidinedione] | 291 | 1.5 to 3 | 291 | – | > 291
